Tests used:
[1] = test system: mutant hygromycin resistance gene in Mata+IntHYG(rep)eGFP; assay: Yeast cell targeting assay: oligonucleotide-directed alteration of the integrated hygromycin-eGFP target; type: cell-based; details: for Alteration per 10^5 Aureobasidin^R colonies: average of four experiments with standard deviation
human β-globin gene [2] = assay: Dual oligonucleotide experiment: screen of hygromycin-resistant colonies for alteration of the β-globin target in the βS YAC (PCR, SNaPshot); details: in hygromycin-selected population; with or without Rad51 overexpression
[3] = test system: mutated Hyg(rep)eGFP target in Mata-intHyg(rep)eGFP/βYAC; assay: Dual oligonucleotide experiment: conversion efficiency for the hygromycin target (Example 2); type: cell-based, yeast
[4] = test system: chromosomal hygromycin mutant gene in LSY678IntHyg(rep)β cells; assay: Dual targeting protocol: correction efficiency (C.E.) of the chromosomal hygromycin mutation (Example 4); type: cell-based, yeast; details: LSY678IntHyg(rep)β + RAD51 expression plasmid; HU and TSA; compared with FIG. 3
human β-globin gene [5] = assay: Dual targeting protocol: second-site editing of the YAC β-globin gene in hygromycin-resistant colonies (SNaPshot, sequencing); details: RAD51 overexpression; HU and TSA

Substance	Fold correction (relative to Hyg3S/74T) [1]	Alteration per 10^5 Aureobasidin^R colonies [1]	alteration efficiency of the β-globin gene relative to alteration of the hygromycin target (human β-globin gene [2])	also measured
5′-C*T*C* GTGCTTTCAGCTTCGATGTAGGAGGGCGTGGATACGTCCTGCGGGTAAATAGCTGCGCCGATGGTTTC *T*A*C-3′ [Hyg3S/74T]	1x	0.22 ± 0.3 per 10^5 Aureobasidin^R colonies		
5′-G*C*C* TCACCACCAACTTCATCCACGTTCACCTTGCCTCACAGGGCAGTAACGGCAGACTTCTCCACAGG*A *G*T-3′ [βS-386m]			approximately 10 fold	
5′-G*T*A* GAAACCATCGGCGCAGCTATTTACCCGCAGGACGTATCCACGCCCTCCTACATCGAAGCTGAAAGCAC*G *A*G-3′ [Hyg3S/74NT]	4.0x	0.89 ± 1.3 per 10^5 Aureobasidin^R colonies		Hygromycin Alteration Efficiency (/10^5) ([3]; βS-378m Experiment, Mata-intHyg(rep)eGFP/βYAC (HU + TSA)): 12.79 /10^5; Hygromycin Alteration Efficiency (/10^5) ([3]; βS-378m Experiment, Mata-intHyg(rep)eGFP/βYAC + pYNARad51 (HU + TSA)): 96.96 /10^5; Hygromycin Alteration Efficiency (/10^5) ([3]; βS-386m Experiment, Mata-intHyg(rep)eGFP/βYAC (HU + TSA)): 12.35 /10^5; Hygromycin Alteration Efficiency (/10^5) ([3]; βS-386m Experiment, Mata-intHyg(rep)eGFP/βYAC, no HU or TSA): 3.22 /10^5; effect of RAD51 expression on hygromycin correction efficiency [4]: increases
5′-T*A*A* CGGCAGACTTCTCCACAGGAGTCAGGTGCACCGTGGTGTCTGTTTGAGGTTGCTAGTGAACACAG*T *T*G-3′ [βS-378m]			approximately 10 fold	cells bearing the corrected hygromycin that also contain the edited β-globin gene (human β-globin gene [5]): approximately 10%
